Experiment [1] deals with pruritus induced by serotonin and PGE2. In words: inhibitory effect against pruritus induced by serotonin and PGE2 (scratching count). The note with it: male ICR mice, scratching counted for 30 minutes, vs control. The class given is in vivo. The method, then: The inhibitory effect against pruritus induced by serotonin and PGE2.
The back of male ICR mice (Charles River Japan Inc., 5 week-old) were sheared by hair clipper. 0.5% MC or the above test compound (100 mg/5 ml/kg or 300 mg/5 ml/kg) was administered orally. After 15 minutes or 1hour, serotonin (3 μg) or mixed solution of serotonin (3 μg) and PGE2 (1nmol) was injected intradermally (20 μl) into the. back of mouse. Scratching of the injected site or the perimeter by the behind paws of mouse was characterized as itch. The scratching was counted for 30 minutes from the injection.
0.5% MC [administration at 15 minutes before the induction]/serotonin (n=10) 0.5% MC [administration at 15 minutes before the induction]/serotonin+PGE2 (n=10) compound (1) [administration at 15 minutes before the induction]/serotonin+PGE2 (n=10) compound (2) [administration at 15 minutes before the
0.5% MC [administration at 1hour before the induction]/serotonin (n=10) 0.5% MC [administration at 1hour before the induction]/serotonin+PGE2 (n=10) compound (3) [administration at 1hour before the induction]/serotonin+PGE2 (n=10)

Experiment [2] deals with model of allergic dermatitis. The experiment in a line: inhibitory effect against pruritus in a model of allergic dermatitis (DNFB hapten, scratching count). The class given is in vivo. The settings on record: male BALB/c mice; 0.15% DNFB weekly; 100 mg/5 ml/kg orally; scratching from 3 to 5 hours and from 24 to 26 hours after fifth application of hapten; vs control; FIG. 3. The method, then:
The inhibitory effect against pruritus in a model of allergic dermatitis. The back of male BALB/c mice (Charles River Japan Inc., 6 week-old) were sheared by hair clipper. 0.15% dinitrofluorobenzene (DNFB) dissolved in mixed solution of acetone and olive oil as hapten was administered 50 μl by micro pipette in the back once a week. After forth applications, the scratching was measured from 3 to 5 hours and from 24 to 26 hours and mice were divided to each group referring the scratch data. 0.5% MC or the test compound (100 mg/5 ml/kg) was administered orally forth every 30 minutes from 30 minutes before 3 and 24 hours, respectively after fifth application of hapten. The scratching was videotaped from 3 to 5 hours and from 24 to 26 hours, respectively, after fifth application of hapten. The scratching was counted and estimated.

[3] abbreviates: 100 mg/5 ml/kg orally 15 minutes before intradermal serotonin (3 μg) + PGE2 (1 nmol), FIG. 1.

`O=C([O-])CCc1ccc(Cn2cccn2)cc1OCCc1ccc2ccccc2c1.[Na+]` [Compound (1), sodium 3-(2-(2-(naphthalen-2-yl)ethoxy)-4-(pyrazol-1-ylmethyl)phenyl)propanoate]: the “number of scratching in serotonin and PGE2-induced pruritus” value in experiment [1] (setting [3]) is reported as “inhibited significantly against control”.
On the same count and under the same terms, for `CC(C)CC(C(=O)Nc1cc(C#N)ccc1Cc1ccccc1C(=O)[O-])c1cccc2ccccc12.[Na+]` (stereo not shown) [Compound (2), sodium 2-[4-cyano-2-[4-methyl-2-(1-naphthyl)pentanoylamino]phenylmethyl]benzoate] the value was “inhibited significantly against control”.
As for `COc1ccc(Br)cc1S(=O)(=O)NC(=O)/C=C/c1ccccc1Cc1ccc2ccccc2c1` [Compound (3), (2E)-N-(5-bromo-2-methoxyphenylsulfonyl)-3-(2-(naphthalen-2-ylmethyl)phenyl) -2-propenamide], the “number of scratching in serotonin and PGE2-induced pruritus” value in experiment [1] (300 mg/5 ml/kg orally 1 hour before intradermal serotonin (3 μg) + PGE2 (1 nmol), FIG. 2) was “inhibited significantly against control”.
Consider `O=C(O)CCc1ccc(Cn2cccn2)cc1OCCc1ccc2ccccc2c1` [Compound (4), 3-(2-(2-(naphthalen-2-yl)ethoxy)-4-(pyrazol-1-ylmethyl)phenyl)propanoic acid], for which the “number of scratching in allergic dermatitis model” value in experiment [2] is on record as “inhibited significantly against control”.

Values taken from patent publication US20040235955A1, “Remedies for pruritus” (priority 2001, published 2004).
